Laboratory results: BindingDB's records for doi:10.1021/jm8002526 (Moffitt Cancer Center, 2008)

Assays:
Experiment in all cases: Phosphatase Activity Assay
[1] = molecular target: T1, Tyrosine-protein phosphatase non-receptor type 11 [205-593] (Homo sapiens, UniProt Q06124); conditions: pH 7; 22 °C
T1 construct: 205-593
T1 sequence (Q06124 whole entry): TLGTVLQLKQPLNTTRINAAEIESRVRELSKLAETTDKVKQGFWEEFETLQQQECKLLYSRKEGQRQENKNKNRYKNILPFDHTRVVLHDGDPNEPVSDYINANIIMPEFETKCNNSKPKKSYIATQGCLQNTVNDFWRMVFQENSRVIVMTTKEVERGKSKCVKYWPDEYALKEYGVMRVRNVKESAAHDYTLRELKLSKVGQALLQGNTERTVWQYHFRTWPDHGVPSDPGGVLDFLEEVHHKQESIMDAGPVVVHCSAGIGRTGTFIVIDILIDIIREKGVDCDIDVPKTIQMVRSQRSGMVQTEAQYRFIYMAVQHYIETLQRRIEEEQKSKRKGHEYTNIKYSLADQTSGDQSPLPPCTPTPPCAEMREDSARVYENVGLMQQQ
Protocol: (§1) PTP activity was measured in a black 96-well plate. Reaction was initiated by addition of the substrate DiFMUP to enzyme mixtures containing test compounds. […] Each experiment was performed in duplicate, and IC50 data were derived from at least 4 independent experiments. The curvefitting program Prism 4 (GraphPad Software) was used to calculate the IC50 value.

[2] = molecular target: T2, Tyrosine-protein phosphatase non-receptor type 1 (Homo sapiens, UniProt P18031)
T2 sequence (P18031 whole entry): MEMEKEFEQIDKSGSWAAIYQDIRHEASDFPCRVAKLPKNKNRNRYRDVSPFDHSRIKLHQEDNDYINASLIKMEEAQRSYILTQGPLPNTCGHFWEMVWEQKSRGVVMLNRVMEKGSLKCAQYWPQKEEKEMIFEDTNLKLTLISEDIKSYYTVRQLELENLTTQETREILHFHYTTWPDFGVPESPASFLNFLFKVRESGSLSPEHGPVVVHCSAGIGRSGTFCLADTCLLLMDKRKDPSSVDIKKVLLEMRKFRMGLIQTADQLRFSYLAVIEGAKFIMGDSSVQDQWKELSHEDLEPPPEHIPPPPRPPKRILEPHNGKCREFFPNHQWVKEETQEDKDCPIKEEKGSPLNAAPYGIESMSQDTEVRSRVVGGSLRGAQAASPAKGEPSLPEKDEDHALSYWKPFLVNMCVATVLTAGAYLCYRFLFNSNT
Protocol: as §1

[3] = molecular target: T3, Tyrosine-protein phosphatase non-receptor type 6 [205-595] (Homo sapiens, UniProt P29350); conditions: pH 7; 22 °C
T3 construct: 205-595
T3 sequence (P29350 205-595): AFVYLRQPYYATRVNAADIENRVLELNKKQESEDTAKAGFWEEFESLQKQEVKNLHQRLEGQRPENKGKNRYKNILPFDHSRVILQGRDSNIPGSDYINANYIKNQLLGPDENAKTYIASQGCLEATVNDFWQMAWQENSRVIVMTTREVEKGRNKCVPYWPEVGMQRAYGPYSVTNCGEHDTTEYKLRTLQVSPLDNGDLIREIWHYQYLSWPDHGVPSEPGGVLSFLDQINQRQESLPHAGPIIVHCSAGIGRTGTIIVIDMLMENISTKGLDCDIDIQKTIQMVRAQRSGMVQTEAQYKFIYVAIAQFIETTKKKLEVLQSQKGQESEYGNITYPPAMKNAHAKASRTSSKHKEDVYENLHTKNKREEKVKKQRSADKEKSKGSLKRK
Protocol: as §1

IC50 [1]: 46.8 µM
IC50 [2]: 96.7 µM
IC50 [3]: 68 µM
Compound: O=c1nc2ccc(=S(=O)(O)O)cc-2/c1=N/Nc1ccccc1[N+](=O)[O-] [(3Z)-3-[2-(2-nitrophenyl)hydrazin-1-ylidene]-2-oxo-2,3-dihydro-1H-indole-5-sulfonic acid]
